Laboratory results taken from the supplement of paper PMC8671470.
± gives the standard deviation of the averaged measurements.

Legend:
Settings in all cases: 72 h
[1] = tested on: HL-60; experiment: area under dose-response curve (viability, 1 nM-10 uM) (fraction (0-1)); higher = more sensitive
Summary of the method: (§1)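 HL-60 cells grown in RPMI 1640 with 10% FBS were rescreened against the full library in 384-well plates, in duplicate, at five tenfold concentrations from 1 to 10,000 nM, alongside DMSO or 100 nM of one of three metabolic inhibitors for 72 h at 37 °C, 5% CO2. Reference wells contained DMSO or 10 μM proteasome inhibitor. Viability was read with CellTiter-Glo and normalised to these reference wells, and where reported, area under the curve was taken from four-parameter log-logistic fits in drc and PharmacoGx.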

[2] = tested on: KCL-22
Summary of the method: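 Fifteen myeloid leukaemia lines in RPMI 1640 were treated for 72 h at 37 °C and 5% CO2 with five tenfold doses from 1 to 10,000 nM, in duplicate. ATP luminescence was normalised to vehicle and to a positive control at 10 µM, then fitted with a four-parameter log-logistic model. The IC50 came from these fits.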

[3] = tested on: K-562; experiment: cell viability (% survival relative to DMSO control, bortezomib = 0%); higher = less cytotoxic
Summary of the method: (§2)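 Seeding density for each of the 10 AML and 5 CML cell lines was titrated to the linear growth range. Cells went into 384-well plates pre-printed in duplicate with compounds at 1, 10, 100, 1000 or 10000 nM and were held for 72 h at 37 °C with 5% CO2. CellTiter-Glo luminescence then provided the readout. Percent survival is expressed relative to vehicle at 100% and a 10 µM positive control at 0%, averaged over duplicates.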

[4] = tested on: HL-60; experiment: as above
Summary of the method: as §2

[5] = tested on: HEL; experiment: as above
Summary of the method: as §2

[6] = tested on: SHI-1; experiment: as above
Summary of the method: as §2

[7] = tested on: THP-1; experiment: as above
Summary of the method: as §2

[8] = tested on: BV-173; experiment: as above
Summary of the method: as §2

[9] = tested on: KG-1; experiment: as above
Summary of the method: as §2

[10] = tested on: KU-812; experiment: as above
Summary of the method: as §2

[11] = tested on: MOLM-13; experiment: as above
Summary of the method: as §2

[12] = tested on: MV4-11; experiment: as above
Summary of the method: as §2

[13] = tested on: LAMA-84; experiment: as above
Summary of the method: as §2

[14] = tested on: ML-2; experiment: as above
Summary of the method: as §2

[15] = tested on: KCL-22; experiment: as above
Summary of the method: as §2

[16] = tested on: Mono-Mac-6; experiment: as above
Summary of the method: as §2

[17] = tested on: NOMO-1; experiment: as above
Summary of the method: as §2

[18] = tested on: HL-60; experiment: cell viability (% survival relative to DMSO control); higher = less cytotoxic
Summary of the method: as §1

O=C1N[C@@H]2[C@@H](O)[C@@H](O)[C@H](O)[C@@H](CO)N2C1=O [Kifunensine]
Settings | area under dose-response curve, co-treatment: AZD3965 100 nM | area under dose-response curve, co-treatment: DMSO vehicle | area under dose-response curve, co-treatment: GSK2194069 100 nM | area under dose-response curve, co-treatment: pictilisib 100 nM | cell viability, 1 nM [%] | cell viability, 10 nM [%] | cell viability, 100 nM [%] | cell viability, 1000 nM [%] | cell viability, 10000 nM [%]
[1] | < 0.0301 | < 0.0301 | < 0.0301 | < 0.0301 | – | – | – | – | –
[3] | – | – | – | – | 93.2 | 102 | 99.3 | 87.6 | 107
[4] | – | – | – | – | 102 | 90.6 | 120 | 120 | 144
[5] | – | – | – | – | 99.6 | 105 | 125 | 87.8 | 109
[6] | – | – | – | – | 96.9 | 99.9 | 105 | 107 | 136
[7] | – | – | – | – | 98.6 | 95.2 | 97.7 | 89 | 104
[8] | – | – | – | – | 95 | 106 | 114 | 86.7 | 90.5
[9] | – | – | – | – | 96.1 | 93.2 | 112 | 88.6 | 85.6
[10] | – | – | – | – | 92.5 | 98.4 | 106 | 83.4 | 96.2
[11] | – | – | – | – | 76.3 | 105 | 117 | 81.3 | 130
[12] | – | – | – | – | 96.4 | 96.3 | 103 | 82.9 | 72.1
[13] | – | – | – | – | 103 | 98.6 | 114 | 84.4 | 107
[14] | – | – | – | – | 96.5 | 95.4 | 116 | 95.7 | 90.9
[15] | – | – | – | – | 107 | 104 | 102 | 89 | 101
[16] | – | – | – | – | 91.8 | 102 | 107 | 88.7 | 92.4
[17] | – | – | – | – | 103 | 102 | 110 | 88.7 | 100

Settings | IC50 (cell viability) [µM]
[2] | > 10

cell viability [%], [18]
Settings | 0.001 µM | 0.01 µM | 0.1 µM | 1 µM | 10 µM
co-treatment: AZD3965 100 nM | 93.1 ± 5.7 | 81.8 ± 28 | 101 ± 2.2 | 99.3 ± 1.2 | 108 ± 4.8
co-treatment: DMSO vehicle | 96.82 ± 0.8 | 99.24 ± 0.24 | 103 ± 3.2 | 101 ± 3.6 | 108 ± 1.7
co-treatment: GSK2194069 100 nM | 95.7 ± 6.9 | 79.8 ± 27 | 101 ± 1.8 | 91.23 ± 0.73 | 91.9 ± 9.2
co-treatment: pictilisib 100 nM | 85.7 ± 3.2 | 112 ± 7.8 | 95.7 ± 2.5 | 104 ± 2.7 | 111.3 ± 0.3

CC(C)(CS(=O)(=O)[O-])NC(=O)CC[N+](C)(C)CCO
Settings | area under dose-response curve, co-treatment: AZD3965 100 nM | area under dose-response curve, co-treatment: DMSO vehicle | area under dose-response curve, co-treatment: GSK2194069 100 nM | area under dose-response curve, co-treatment: pictilisib 100 nM | cell viability, 1 nM [%] | cell viability, 10 nM [%] | cell viability, 100 nM [%] | cell viability, 1000 nM [%] | cell viability, 10000 nM [%]
[1] | < 0.0301 | < 0.0301 | < 0.0301 | < 0.0301 | – | – | – | – | –
[3] | – | – | – | – | 108 | 88.5 | 105 | 97.8 | 105
[4] | – | – | – | – | 116 | 118 | 97.8 | 78.4 | 97.8
[5] | – | – | – | – | 101 | 106 | 93.8 | 98.8 | 104
[6] | – | – | – | – | 107 | 115 | 96.8 | 91.8 | 126
[7] | – | – | – | – | 101 | 102 | 99.5 | 93.2 | 120
[8] | – | – | – | – | 88.4 | 97.7 | 91.6 | 91.3 | 113
[9] | – | – | – | – | 97.4 | 114 | 93.6 | 94.4 | 118
[10] | – | – | – | – | 99.7 | 98.6 | 99.3 | 89.4 | 107
[11] | – | – | – | – | 121 | 112 | 97.2 | 82.3 | 117
[12] | – | – | – | – | 104 | 101 | 99.8 | 95.6 | 114
[13] | – | – | – | – | 88.8 | 96.6 | 100 | 91.3 | 106
[14] | – | – | – | – | 95.4 | 109 | 89.4 | 88.9 | 115
[15] | – | – | – | – | 107 | 103 | 94.1 | 88.8 | 117
[16] | – | – | – | – | 86.8 | 105 | 90.1 | 91.6 | 105
[17] | – | – | – | – | 94.8 | 102 | 96 | 94.3 | 101

Settings | IC50 (cell viability) [µM]
[2] | > 10

cell viability [%], [18]
Settings | 0.001 µM | 0.01 µM | 0.1 µM | 1 µM | 10 µM
co-treatment: AZD3965 100 nM | 101 ± 5.7 | 89.5 ± 25 | 116 ± 26 | 122 ± 30 | 94.1 ± 3.8
co-treatment: DMSO vehicle | 95.9 ± 6.8 | 98.4 ± 11 | 107.3 ± 0.43 | 106 ± 3.5 | 100 ± 1.9
co-treatment: GSK2194069 100 nM | 105 ± 11 | 95.2 ± 10 | 102 ± 1.7 | 111 ± 12 | 99.7 ± 2.9
co-treatment: pictilisib 100 nM | 102 ± 6.8 | 79.9 ± 30 | 107 ± 5 | 115 ± 23 | 99.9 ± 7.4
